Measured values reported in ChEMBL document CHEMBL1201862, “PubChem BioAssay data set” (2004).
Calls of active or inactive are those of the source. Rule as the data show it, for most assays here: actives have a measured EC50 and inactives only a lower limit.

Experiments:
[1] = target: T1, Heat shock factor protein 1 (Mus musculus, UniProt P38532); test: inhibition of MG132-induced HSE-luciferase signal, confirmation, cell-based, NIH3T3, luminescence, dose retest (AID 2382); assay type: functional;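 also: NIH3T3 fibroblasts with HSF1-driven luciferase reporter stressed by proteasome inhibitor MG132; luminescence from HSF1-driven luciferase expression after 8 hours of MG132 stress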
T1 sequence (P38532 whole entry): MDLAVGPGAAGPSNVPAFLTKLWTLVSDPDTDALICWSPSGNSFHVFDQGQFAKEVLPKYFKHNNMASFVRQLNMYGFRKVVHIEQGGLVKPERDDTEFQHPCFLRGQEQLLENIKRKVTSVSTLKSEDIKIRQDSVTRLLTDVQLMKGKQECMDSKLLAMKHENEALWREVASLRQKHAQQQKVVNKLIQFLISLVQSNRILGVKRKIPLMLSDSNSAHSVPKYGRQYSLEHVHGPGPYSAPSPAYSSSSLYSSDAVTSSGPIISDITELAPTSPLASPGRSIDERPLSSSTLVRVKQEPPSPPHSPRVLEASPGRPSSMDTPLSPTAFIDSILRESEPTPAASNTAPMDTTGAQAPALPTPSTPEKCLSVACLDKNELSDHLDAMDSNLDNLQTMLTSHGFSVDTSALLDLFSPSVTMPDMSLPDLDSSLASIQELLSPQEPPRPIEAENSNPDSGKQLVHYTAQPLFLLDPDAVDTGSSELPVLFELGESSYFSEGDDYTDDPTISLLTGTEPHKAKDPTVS

[2] = target: Cytochrome P450 2D6 (Homo sapiens, UniProt P10635);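 also: CYP2D6 member of a cytochrome P450 panel assay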
Chain of Cytochrome P450 2D6 (P10635 whole entry): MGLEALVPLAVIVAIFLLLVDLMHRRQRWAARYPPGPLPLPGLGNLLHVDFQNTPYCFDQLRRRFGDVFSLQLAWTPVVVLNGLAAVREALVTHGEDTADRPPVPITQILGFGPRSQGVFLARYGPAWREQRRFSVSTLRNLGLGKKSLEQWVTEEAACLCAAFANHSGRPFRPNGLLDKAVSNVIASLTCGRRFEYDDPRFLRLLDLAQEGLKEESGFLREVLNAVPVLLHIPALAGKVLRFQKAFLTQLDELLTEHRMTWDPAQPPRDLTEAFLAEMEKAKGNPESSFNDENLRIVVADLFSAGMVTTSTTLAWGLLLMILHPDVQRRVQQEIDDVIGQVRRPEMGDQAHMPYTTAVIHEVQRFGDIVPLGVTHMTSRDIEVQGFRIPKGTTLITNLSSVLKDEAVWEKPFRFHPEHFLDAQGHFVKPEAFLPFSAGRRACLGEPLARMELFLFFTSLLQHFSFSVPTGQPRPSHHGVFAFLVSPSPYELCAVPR

[3] = inhibitors of intracellular T. cruzi replication, confirmation, NIH3T3 host cells, beta-gal luminescence (AID 2044); assay type: functional, cell-based;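 also: intracellular parasites grown in NIH/3T3 mouse fibroblasts as host cells; luminescent beta-galactosidase reporter signal from transgenic T. cruzi replicating inside host cells; inhibitors lower the luminescence signal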
[4] = cytotoxicity toward NIH3T3 fibroblasts, dose response, counter-screen, cell-based, ATP luminescence, mouse fibroblasts (AID 2010); assay type: functional;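 also: cells exposed to compound for about 90 hours before reading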
[5] = tested on: Streptococcus; test: Group A Streptococcus viability loss, dose response, counter-screen for streptokinase expression inhibitor project, luminescence, BacTiterGlo (AID 1915); assay type: functional, organism-based;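 also: potency for reduction of bacterial viability or growth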
[6] = tested on: Streptococcus sp. 'group A'; test: growth inhibition of control SK(-) GAS strain, dose response, counter-screen for streptokinase expression inhibitor project, luminescence, kanamycin, BacTiterGlo, confirmation (AID 1900); assay type: functional, organism-based
[7] = target: T2, Streptokinase A (Streptococcus pyogenes serotype M1, UniProt P10520); test: S. pyogenes streptokinase expression inhibitors, potency, dose response, plasminogen activation absorbance, OD405 (AID 1914); assay type: functional, Streptococcus pyogenes M1 GAS;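 also: secreted streptokinase activity via plasminogen activation per viability signal from cell pellet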
T2 sequence (P10520 whole entry): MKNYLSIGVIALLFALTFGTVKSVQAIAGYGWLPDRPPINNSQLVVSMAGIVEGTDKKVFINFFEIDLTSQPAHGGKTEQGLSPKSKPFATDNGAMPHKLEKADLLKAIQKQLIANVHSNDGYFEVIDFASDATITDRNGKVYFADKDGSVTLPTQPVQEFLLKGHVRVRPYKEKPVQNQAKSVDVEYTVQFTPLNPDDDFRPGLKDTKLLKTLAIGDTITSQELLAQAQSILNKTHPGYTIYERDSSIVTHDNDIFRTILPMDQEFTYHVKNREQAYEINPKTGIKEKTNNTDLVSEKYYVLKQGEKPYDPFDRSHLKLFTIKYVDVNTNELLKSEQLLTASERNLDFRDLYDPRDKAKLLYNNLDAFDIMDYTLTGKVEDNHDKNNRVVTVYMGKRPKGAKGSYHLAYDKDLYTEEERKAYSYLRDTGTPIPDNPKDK

For `CCCc1nnc(NC(=O)CCC(=O)N2CCN(S(=O)(=O)c3ccc(F)cc3)CC2)s1`, the EC50 [1] was > 195 µM (not active).

For `O=C(N/N=C/c1ccc(F)cc1)c1ccc(OCc2ccccc2)cc1`, the EC50 [1] was > 195 µM (not active).

With `Cc1noc(C)c1COc1ccc(C(=O)OCC(=O)Nc2c(C)n(C)n(-c3ccccc3)c2=O)cc1` the EC50 [1] was > 195 µM (not active).

In the case of `Cc1ccccc1NC(=O)CN1CCC(n2nnc3ccccc32)CC1`, the AC50 [2] is reported as 0.01 µM (inconclusive).

With `Cc1ccc(OCc2nnc(SC(C)C(=O)O)n2-c2ccccc2)cc1` (configuration not stated) the EC50 [1] was > 195 µM (not active).

With `Cc1nc(Nc2ccc3c(c2)OCCO3)c2nnn(Cc3ccccc3Cl)c2n1` the EC50 [3] was 2.74 µM (active), the EC50 [4] was > 60 µM (not active) and the EC50 [1] was 3.43 µM (active).

In the case of `CC1CCCN(CCCOc2ccc(Cl)cc2Br)C1` (configuration not stated), the EC50 [1] is reported as > 195 µM (not active).

In the case of `COc1ccccc1-c1cc(NCc2cccc(C)c2)ncn1`, the AC50 [2] is reported as 20 µM (inconclusive).

With `CCOC(=O)C1CCN(c2c(NCc3ccc(C(=O)Nc4ccc(C)cc4)cc3)c(=O)c2=O)CC1` the EC50 [1] was > 195 µM (not active).

With `CC(C)/C(=N/Nc1ccccc1[N+](=O)[O-])c1ccccc1` the EC50 [5] was 52.5 µM (active), the EC50 [6] was 6.63 µM (active) and the EC50 [7] was 18.4 µM (active).

For `O=C(NCCCn1ccnc1)c1nn2c(C(F)(F)F)cc(-c3ccccc3)nc2c1Cl`, the EC50 [5] was > 150 µM (not active), the EC50 [6] was > 150 µM (not active) and the EC50 [7] was > 150 µM (not active).

For `CCOc1ccc(N(CC(=O)NCc2ccc(C)cc2)S(=O)(=O)c2c(C)nc(O)nc2O)cc1`, the EC50 [5] was > 150 µM (not active), the EC50 [6] was > 150 µM (not active) and the EC50 [7] was > 150 µM (not active).

With `COc1cccc(-n2ccnc2SCC(=O)Nc2ccccc2F)c1` the EC50 [1] was > 195 µM (not active).

With `c1ccc2c(NC3CCNCC3)nc(-c3ccoc3)nc2c1` the AC50 [2] was 7.94 µM (inconclusive).

For `O=C(c1cnccn1)N1CCC2(CCCN(Cc3ccccc3)C2)CC1`, the AC50 [2] was 7.94 µM (inconclusive).

In the case of `CCOc1ccc(NC(=O)C2CCCN(c3nn4c(=O)cc(C)nc4s3)C2)cc1` (configuration not stated), the EC50 [1] is reported as > 195 µM (not active).

In the case of `O=S(=O)(NCc1ccccn1)c1ccc(F)cc1`, the EC50 [1] is reported as > 195 µM (not active).

For `O=C1NC(=O)N(Cc2ccccc2)C(=O)/C1=C/NCCN1CCNCC1`, the EC50 [1] was > 195 µM (not active).

With `Oc1ccccc1/C=N/NC(=S)NC1CC2C=CC1C2` (configuration not stated) the EC50 [5] was > 16 µM (not active), the EC50 [6] was 5.04 µM (active) and the EC50 [7] was > 16 µM (not active).

For `Cc1nc2cc(-c3ccccc3)nn2c(C)c1CCC(=O)NC(C)c1ccc2c(c1)OCCO2` (configuration not stated), the EC50 [1] was > 195 µM (not active).

With `O=C(CN1C(=O)C2C3C=CC(C3)C2C1=O)OCC(=O)c1ccc(Br)cc1` (configuration not stated) the EC50 [1] was > 195 µM (not active).

For `O=C(O)c1cccc(NC(=S)NC(=O)c2ccc3ccccc3c2)c1`, the EC50 [1] was 20.6 µM (active).

With `COc1ccc(-c2ncn(CCC#N)c2[N+](=O)[O-])cc1` the EC50 [5] was 5.92 µM (active), the EC50 [6] was 3.52 µM (active) and the EC50 [7] was > 150 µM (not active).

In the case of `CSCC[C@H](NC(=O)N1CCn2c1nc1ccccc12)C(=O)NC1CC1`, the EC50 [1] is reported as > 195 µM (not active).

For `Cc1nc2cnc(Oc3ccccc3)nc2n(Cc2cccs2)c1=O`, the AC50 [2] was 31.6 µM (inconclusive).
